Results: patent publication US20210169984A1, “SENSITIZING CANCER TO DEATH RECEPTOR AGONISTS WITH KINASE INHIBITORS” (The Johns Hopkins University, priority 2016, published 2021)
“Also recorded” adds a separate entry of the source.

Key:
[1] = mouse, in vivo; cited from earlier work
[2] = test system: DU-145 prostate adenocarcinoma cells; experiment: KI library screen for TRAIL sensitization; assay type: cell-based, human
From the text: (§1) A library of KIs was screened for TRAIL sensitization in various TRAIL-resistant cancer cells, including: HT29 (CRC), MDA-MB-231 (breast), LNCAP (prostate), DU145 (prostate), PC3 (prostate) and A549 (lung). […] The 355 KIs comprised of compounds targeting diverse kinases, including multi kinases, RTK (receptor kinase tyrosine), PI3K (phosphinistide 3-kinase), aurora kinases, including […] (mitogen-activated protein kinase). […] The interaction between KIs and TRAIL had been previously explored in vitro with the tyrosine KI sorafenib, a drug similar to regorafenib. However, such studies were mostly performed on cellular levels and not in in vivo models, combined with systemically administered recombinant TRAIL. Although a similar structure, regorafenib was newly approved in 2012. The interactions between the three other selected KIs and TRAIL have not been previously reported, in vitro or in vivo.

[3] = test system: PC3 prostate adenocarcinoma cells; experiment: KI library screen for TRAIL sensitization; assay type: cell-based, human
Description: FIG. 2B depicts a bar graph showing quantified cell death after analyzing synergized cell death induced by TRAILPEG (1 μg/mL for 3 hr) and kinase inhibitors (KIs) in HT29 (human colon tumor cell line) and PC3 (human prostate tumor cell line) cells individually pretreated with selected 355 KIs. Relative cell death rates were calculated by [KI+TRAILPEG]/[KI alone] after separate MTT assays. The arrows indicate KIs with >60% cell death; n=3.
as §1

[4] = test system: A549 lung carcinoma cells; experiment: KI library screen for TRAIL sensitization; assay type: cell-based, human
From the text: as §1

[5] = test system: MDA-MB-231 breast cancer cells; experiment: KI library screen for TRAIL sensitization; assay type: cell-based, human
From the text: as §1

[6] = test system: HP LNCAP prostate adenocarcinoma cells; experiment: KI library screen for TRAIL sensitization; assay type: cell-based, human
From the text: as §1
(§2) Regorafenib potentiated TRAIL-induced apoptosis in prostate cancer cells (LNCAP, HPLNCAP (High Passages LNCAP), DU-145 and PC-3) when combined with TRAILPEG (1 μg/mL) (FIG. 5). After treating cells with regorafenib (5 μM), caspases and anti-apoptotic proteins were analyzed by western blotting (FIG. 6A-FIG. 6C). […] Data confirmed that FDA-approved KIs or KIs under clinical development synergized with long-acting TRAILPEG by overcoming TRAIL-resistance through unique TRAIL sensitization mechanisms.

HT29 xenografts = experiment: TRAIL-resistant HT29 tumor xenograft; assay type: in vivo; details: oral regorafenib 10 mg/kg days 12, 14, 16; TRAILPEG 150 μg i.v. days 13, 15, 17; sacrifice day 27
Description: (§3) FIG. 5 depicts a bar graph showing results of tumor volumes in mice bearing TRAIL-resistant HT29 tumors treated with three rounds of TRAILPEG (150 μg, i.v), oral regorafenib (10 mg/kg) or oral regorafenib with TRAILPEG within days (12-17) after tumor inoculation. Mice were sacrificed on day 27. […] FIG. 6A depicts a Western blot analysis of LNCAP prostate cancer cells with regorafenib alone or in combination with TRAILPEG.
The therapeutic combination of oral regorafenib and TRAILPEG in HT29 xenografts in comparison to regorafenib and TRAILPEG alone (FIG. 7) were investigated. HT29 xenografts were treated with oral regorafenib (10 mg/kg) or saline on the 12th, 14th, and 16th days of tumor inoculation. On the 13th, 15th, and 17th days, animals were given an i.v. dose of TRAILPEG (150 μg). Animals were sacrificed on day 27.

[7] = test system: prostate cancer cells (LNCAP, DU145, PC-3); experiment: Western blot of prostate cancer cells, regorafenib alone or with TRAILPEG (FIG. 6A-6C); assay type: cell-based, human
Description: as §3
FIG. 6B depicts a Western blot analysis of DU145 prostate cancer cells with regorafenib alone or in combination with TRAILPEG.
FIG. 6C depicts a Western blot analysis of PC-3 prostate cancer cells with regorafenib alone or in combination with TRAILPEG.
as §2

HT29 (CRC) cells = experiment: KI library screen for TRAIL sensitization (KI pretreatment, then TRAILPEG; MTT cell death assay); assay type: cell-based, human
Description: The screening is performed using an MTT cell death assay in CRC cells with different TRAIL sensitivities.

HT29 cells [8] = experiment: Western blot of DR4/5 and anti-apoptotic proteins (FIG. 4B); assay type: cell-based, human; details: regorafenib, 48 hours
Description: (§4) HT29 cells were treated with regorafenib (2 μM) for 24 hour or 48 hour as indicated. mRNAs for TRAIL receptors were measured by quantitative RT-PCR (qPCR) (FIG. 4A). […] After treating HT29 cells with regorafenib as indicated, DR4/5 or anti-apoptotic proteins were analyzed by Western blot (FIG. 4B). […] Conversely, anti-apoptotic proteins MCL-1 and BCL-2 were absent in HT29 cells treated with regorafenib for 48 hours. It has been previously reported that TRAIL receptors could be induced by signaling including NF-κB, ER stress, and JNK-ROS.

[9] = test system: prostate cancer cells (LNCAP, HPLNCAP, DU-145 and PC-3); experiment: Quantified cell death after regorafenib and TRAILPEG in prostate cancer cells; assay type: cell-based, human; details: regorafenib 5 μM combined with TRAILPEG 1 μg/mL
Description: FIG. 7 is a bar graph showing that regorafenib enhanced TRAILPEG-induced apoptosis in prostate cancer cells. Quantified cell death after combinatorial treatment with regorafenib (5 μM) and TRAILPEG (1 μg/mL) in various prostate cancer cells is shown. *P<0.05, **P<0.01, ***P<0.001 versus control (regorafenib only).
as §2

HT29 cells [10] = experiment: Western blot of caspases and anti-apoptotic proteins, regorafenib alone or with TRAILPEG (FIG. 3B); assay type: cell-based, human
Description: FIG. 3B depicts a Western blot analysis of HT29 cells with regorafenib alone or in combination with TRAILPEG.
as §2, with “HT-29” for “prostate cancer”, “cells” for “cells (LNCAP, HPLNCAP (High Passages LNCAP), DU-145 and PC-3)”, “3A).” for “5).”, “(2” for “(5”, “3B).” for “6A-FIG. 6C).”

HT29 cells [11] = experiment: qPCR of death receptors and decoy receptors (FIG. 4A); assay type: cell-based, human; details: regorafenib 2 μM
Description: FIG. 4A depicts a bar graph showing qPCR analysis of death receptors (DRs) and decoy receptors (DcRs) in HT29 cells treated with regorafenib for 24 hours or 48 hours as indicated; *P<0.05, **P<0.01, ***P<0.001 versus control.
as §4

HT-29 cells = experiment: Quantified cell death after combinatorial treatment with regorafenib and TRAILPEG (FIG. 3A); assay type: cell-based, human; details: regorafenib combined with TRAILPEG 1 μg/mL
Description: FIG. 3A depicts a bar graph showing that regorafenib (an oral, multi-kinase inhibitor) enhanced TRAILPEG -induced apoptosis in colorectal cancer (CRC) cells. Quantified cell death after combinatorial treatment with regorafenib and TRAILPEG (1 μg/mL) in HT-29 cells is shown.
as §2, with “HT-29” for “prostate cancer”, “cells” for “cells (LNCAP, HPLNCAP (High Passages LNCAP), DU-145 and PC-3)”, “3A).” for “5).”, “(2” for “(5”, “3B).” for “6A-FIG. 6C).”

[12] = test system: LNCAP prostate adenocarcinoma cells; experiment: KI library screen for TRAIL sensitization; assay type: cell-based, human
From the text: as §1

[13] = regorafenib 5 μM combined with TRAILPEG

2K-PEG-TRAIL: TRAIL derivatized with 2K PEG (Kim, et al.)
circulating half-life [1]: 3.9 h

5K-PEG-TRAIL: TRAIL derivatized with 5K PEG (Kim, et al.)
circulating half-life [1]: 5.3 h

10K-PEG-TRAIL: TRAIL derivatized with 10K PEG (Kim, et al.)
circulating half-life [1]: 6.2 h

20K-PEG-TRAIL: TRAIL derivatized with 20K PEG (Kim, et al.)
circulating half-life [1]: 12.3 h

30K-PEG-TRAIL: TRAIL derivatized with 30K PEG (Kim, et al.)
circulating half-life [1]: 17.7 h

C=CC(=O)Nc1ccc2ncnc(Nc3ccc(OCc4cccc(F)c4)c(Cl)c3)c2c1 [AST-1306]
KIs that sensitize cancer cells to TRAIL-based agents [2]: Example KIs that sensitize cancer cells to TRAIL-based agents.
KIs that sensitize cancer cells to TRAIL-based agents [3]: Example KIs that sensitize cancer cells to TRAIL-based agents.

COc1cc(N2CCC(N)CC2)ccc1Nc1ncc(Cl)c(-c2c[nH]c3ccccc23)n1 [AZD3463]
KIs that sensitize cancer cells to TRAIL-based agents [2]: Example KIs that sensitize cancer cells to TRAIL-based agents.
KIs that sensitize cancer cells to TRAIL-based agents [3]: Example KIs that sensitize cancer cells to TRAIL-based agents.

COCCOc1ccc2c(c1)ncn2-c1ccc2cccc(N3CCC(N)CC3)c2n1 [CP-673451]
KIs that sensitize cancer cells to TRAIL-based agents [4]: Example KIs that sensitize cancer cells to TRAIL-based agents.
KIs that sensitize cancer cells to TRAIL-based agents [3]: Example KIs that sensitize cancer cells to TRAIL-based agents.

COc1cc2ncnc(Nc3ccc(F)c(Cl)c3)c2cc1NC(=O)/C=C/CN1CCCCC1 [Dacomitinib (PF299804, PF299), Dacomitinib]
KIs that sensitize cancer cells to TRAIL-based agents [5]: Example KIs that sensitize cancer cells to TRAIL-based agents.
KIs that sensitize cancer cells to TRAIL-based agents [2]: Example KIs that sensitize cancer cells to TRAIL-based agents.

COc1cc2c(Oc3ccc(NC(=O)C4(C(=O)Nc5ccc(F)cc5)CC4)cc3F)ccnc2cc1OCCCN1CCOCC1 [Foretinib (GSK1363089), Foretinib]
KIs that sensitize cancer cells to TRAIL-based agents [2]: Example KIs that sensitize cancer cells to TRAIL-based agents.

CCOc1cc2ncc(C#N)c(Nc3ccc(OCc4ccccn4)c(Cl)c3)c2cc1NC(=O)/C=C/CN(C)C [Neratinib (HKI-272), Neratinib]
KIs that sensitize cancer cells to TRAIL-based agents [2]: Example KIs that sensitize cancer cells to TRAIL-based agents.

C=CC(=O)Nc1ccc2ncnc(Nc3cccc(Br)c3)c2c1 [PD168393]
KIs that sensitize cancer cells to TRAIL-based agents [6]: Example KIs that sensitize cancer cells to TRAIL-based agents.

CNC(=O)c1cc(Oc2ccc(NC(=O)Nc3ccc(Cl)c(C(F)(F)F)c3)c(F)c2)ccn1 [Regorafenib (BAY 73-4506), Regorafenib]
tumor growth / tumor volume (HT29 xenografts): moderate tumor reduction
KIs that sensitize cancer cells to TRAIL-based agents [6]: Example KIs that sensitize cancer cells to TRAIL-based agents.
anti-apoptotic protein MCL-1 [7, 13]: downregulated
caspase-dependent TRAILPEG-induced apoptosis (PARP-1 cleavage, caspase activation) [7, 13]: significantly sensitized
apoptosis by single agent ([7]; regorafenib or TRAILPEG alone): did not induce strong apoptosis
efficacy when combined with TRAILPEG (relative cell death, KI+TRAILPEG / KI alone) (HT29 (CRC) cells; HT29 cells pretreated with KI for 24 hours before TRAILPEG): synergistic efficacy
KIs that sensitize cancer cells to TRAIL-based agents (HT29 (CRC) cells; HT-29 colorectal adenocarcinoma): Example KIs that sensitize cancer cells to TRAIL-based agents.
DR4 protein (HT29 cells [8]; listed as Regorafenib): highly expressed
DR4 protein (HT29 cells [8]; listed as regorafenib): up-regulation
anti-apoptotic proteins MCL-1 and BCL-2 (HT29 cells [8]; listed as regorafenib): absent; also recorded: down-regulated
TRAIL-induced apoptosis ([9]; listed as Regorafenib): potentiated
TRAIL-induced apoptosis ([9]; listed as regorafenib): enhanced
KIs that sensitize cancer cells to TRAIL-based agents [3]: Example KIs that sensitize cancer cells to TRAIL-based agents.
RIP-1 (HT29 cells [10]): dose-dependently downregulated
anti-apoptotic proteins c-FLIP, MCL-1, BCL-2, and BCL-XL (HT29 cells [10]; regorafenib 2 μM): downregulated
caspase-dependent TRAILPEG-induced apoptosis (PARP-1 cleavage, caspase activation) (HT29 cells [10]; regorafenib 2 μM): significantly sensitized
DR4 mRNA (HT29 cells [11]; 24 or 48 hour): significantly upregulate; also recorded: upregulated
DRS mRNA (HT29 cells [11]; 24 or 48 hour): minimally induced
DcR2 expression (HT29 cells [11]; 48 hour): down-regulating; also recorded: rarely detectable
TRAIL-induced apoptosis (HT-29 cells; listed as Regorafenib): potentiated
TRAIL-induced apoptosis (HT-29 cells; listed as regorafenib): enhanced

Cn1cc(-c2ccc3nnc(Sc4ccc5ncccc5c4)n3n2)cn1 [SGX-523]
KIs that sensitize cancer cells to TRAIL-based agents [6]: Example KIs that sensitize cancer cells to TRAIL-based agents.
KIs that sensitize cancer cells to TRAIL-based agents [12]: Example KIs that sensitize cancer cells to TRAIL-based agents.

CC(C)(C)c1cc(C=C(C#N)C#N)cc(C(C)(C)C)c1O [Tyrphostin 9]
KIs that sensitize cancer cells to TRAIL-based agents [6]: Example KIs that sensitize cancer cells to TRAIL-based agents.
KIs that sensitize cancer cells to TRAIL-based agents [12]: Example KIs that sensitize cancer cells to TRAIL-based agents.
KIs that sensitize cancer cells to TRAIL-based agents [2]: Example KIs that sensitize cancer cells to TRAIL-based agents.
KIs that sensitize cancer cells to TRAIL-based agents [3]: Example KIs that sensitize cancer cells to TRAIL-based agents.

CC(C)(C)c1cc(/C=C(\C#N)C(N)=S)cc(C(C)(C)C)c1O [Tyrphostin AG 879]
KIs that sensitize cancer cells to TRAIL-based agents [6]: Example KIs that sensitize cancer cells to TRAIL-based agents.

C=CC(=O)Nc1cccc(Oc2nc(Nc3ccc(N4CCN(C)CC4)cc3OC)ncc2Cl)c1 [WZ4002]
KIs that sensitize cancer cells to TRAIL-based agents [6]: Example KIs that sensitize cancer cells to TRAIL-based agents.
KIs that sensitize cancer cells to TRAIL-based agents [4]: Example KIs that sensitize cancer cells to TRAIL-based agents.
